Measurements: ChEMBL document CHEMBL1909046, “DrugMatrix in vitro pharmacology data”

Experiments:
[1] = molecular target: Beta-2 adrenergic receptor (Homo sapiens, UniProt P07550); experiment: DRUGMATRIX: Adrenergic beta2 radioligand binding (ligand: [3H] CGP-12177); assay type: cell membranes, CHO, Membrane; conditions: cho; Not Active = under 50% inhibition at 10 µM
[2] = molecular target: T1, Nitric oxide synthase, inducible (Mus musculus, UniProt P29477); set-up: species or system Escherichia coli;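 also: inhibition of iNOS enzyme activity measured with L-arginine as substrate; in other assays of this panel Not Active means under 50% inhibition at 10 µM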
T1 sequence (P29477 whole entry): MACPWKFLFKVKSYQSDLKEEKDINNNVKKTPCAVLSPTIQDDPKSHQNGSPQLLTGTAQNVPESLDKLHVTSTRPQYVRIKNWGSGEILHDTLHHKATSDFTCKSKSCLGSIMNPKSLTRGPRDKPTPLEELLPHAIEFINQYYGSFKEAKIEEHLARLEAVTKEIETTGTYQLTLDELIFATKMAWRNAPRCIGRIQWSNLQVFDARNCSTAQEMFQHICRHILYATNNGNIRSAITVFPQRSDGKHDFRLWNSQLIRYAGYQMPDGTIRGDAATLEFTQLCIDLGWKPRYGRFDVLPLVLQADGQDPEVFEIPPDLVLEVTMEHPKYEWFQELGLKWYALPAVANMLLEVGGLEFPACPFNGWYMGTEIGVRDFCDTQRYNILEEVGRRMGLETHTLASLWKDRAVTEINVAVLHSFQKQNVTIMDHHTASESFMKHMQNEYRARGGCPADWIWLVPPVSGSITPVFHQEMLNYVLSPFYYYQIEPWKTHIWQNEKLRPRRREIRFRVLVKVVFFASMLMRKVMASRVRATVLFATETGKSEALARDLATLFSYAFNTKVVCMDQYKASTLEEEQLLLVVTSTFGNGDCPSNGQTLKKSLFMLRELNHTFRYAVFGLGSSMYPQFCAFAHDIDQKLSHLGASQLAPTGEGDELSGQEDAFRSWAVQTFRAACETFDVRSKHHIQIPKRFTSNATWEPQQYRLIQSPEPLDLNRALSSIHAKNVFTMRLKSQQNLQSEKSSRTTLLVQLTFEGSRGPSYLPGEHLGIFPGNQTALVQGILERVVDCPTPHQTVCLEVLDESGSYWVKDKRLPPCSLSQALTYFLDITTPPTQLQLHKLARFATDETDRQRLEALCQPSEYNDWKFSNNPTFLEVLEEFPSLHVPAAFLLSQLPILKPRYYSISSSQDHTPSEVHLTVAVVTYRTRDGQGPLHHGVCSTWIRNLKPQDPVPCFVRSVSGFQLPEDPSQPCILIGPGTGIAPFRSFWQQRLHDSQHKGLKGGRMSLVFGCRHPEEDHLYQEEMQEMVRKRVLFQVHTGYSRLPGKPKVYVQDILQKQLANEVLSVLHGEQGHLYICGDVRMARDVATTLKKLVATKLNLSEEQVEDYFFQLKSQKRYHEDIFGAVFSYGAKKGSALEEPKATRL

[3] = molecular target: Protein kinase C alpha type (Homo sapiens, UniProt P17252); assay type: cell-based; conditions: sf9;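 also: inhibition of PKCalpha kinase activity measured in an enzyme assay with histone as the phosphorylation substrate; in other assays of this panel Not Active means under 50% inhibition at 10 µM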
[4] = molecular target: Protein phosphatase 3 catalytic subunit alpha (Homo sapiens, UniProt Q08209); set-up: species or system Escherichia coli;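 also: inhibition of calcineurin (PP2B) enzyme activity, measured with DiFMUP as the substrate; in other assays of this panel Not Active means under 50% inhibition at 10 µM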
[5] = molecular target: Epidermal growth factor receptor (Homo sapiens, UniProt P00533); experiment: DRUGMATRIX: Protein Tyrosine Kinase, EGF Receptor enzyme inhibition (substrate: Poly(Glu:Tyr)); assay type: cell-based, Insect cells; conditions: Not Active = under 50% inhibition at 10 µM
[6] = molecular target: Tyrosine-protein kinase Fyn (Homo sapiens, UniProt P06241); experiment: biochemical; assay type: cell-based, Insect cells;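 also: enzymatic inhibition of Fyn kinase activity measured with Poly(Glu:Tyr) as the phosphorylation substrate; in other assays of this panel Not Active means under 50% inhibition at 10 µM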
Sequence of Tyrosine-protein kinase Fyn (P06241 whole entry): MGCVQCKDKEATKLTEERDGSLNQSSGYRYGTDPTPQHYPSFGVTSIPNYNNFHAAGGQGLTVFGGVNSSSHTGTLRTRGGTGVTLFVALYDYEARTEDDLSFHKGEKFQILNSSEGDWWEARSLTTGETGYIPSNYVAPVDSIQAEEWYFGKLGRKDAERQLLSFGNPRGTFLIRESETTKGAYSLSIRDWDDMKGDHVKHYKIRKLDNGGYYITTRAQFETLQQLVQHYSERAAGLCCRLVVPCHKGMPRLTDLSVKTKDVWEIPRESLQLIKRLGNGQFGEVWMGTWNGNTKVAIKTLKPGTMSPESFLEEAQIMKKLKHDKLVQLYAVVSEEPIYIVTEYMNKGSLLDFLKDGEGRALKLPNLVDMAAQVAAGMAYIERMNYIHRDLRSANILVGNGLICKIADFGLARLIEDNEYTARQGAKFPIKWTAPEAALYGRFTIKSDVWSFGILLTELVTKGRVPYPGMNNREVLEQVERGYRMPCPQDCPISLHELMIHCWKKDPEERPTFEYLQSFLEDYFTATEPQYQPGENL

[7] = molecular target: T2, Cytochrome P450 2A6 (Homo sapiens, UniProt P11509); conditions: bti-tn-5b1-4; also: in other assays of this panel Not Active means under 50% inhibition at 10 µM
T2 sequence (P11509 whole entry): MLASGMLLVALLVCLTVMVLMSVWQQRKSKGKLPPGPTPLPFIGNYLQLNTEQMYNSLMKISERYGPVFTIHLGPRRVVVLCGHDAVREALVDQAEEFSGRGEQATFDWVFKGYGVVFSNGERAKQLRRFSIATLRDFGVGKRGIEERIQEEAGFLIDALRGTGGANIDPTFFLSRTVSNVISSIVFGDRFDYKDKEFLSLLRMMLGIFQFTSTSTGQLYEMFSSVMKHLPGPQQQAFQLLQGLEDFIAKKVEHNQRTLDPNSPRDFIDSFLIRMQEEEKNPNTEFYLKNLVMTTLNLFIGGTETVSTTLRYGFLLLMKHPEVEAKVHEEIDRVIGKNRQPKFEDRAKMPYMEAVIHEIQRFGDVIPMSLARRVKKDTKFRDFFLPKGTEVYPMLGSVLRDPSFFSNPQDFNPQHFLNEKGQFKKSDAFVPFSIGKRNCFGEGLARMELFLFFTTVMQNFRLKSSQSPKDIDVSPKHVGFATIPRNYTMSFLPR

[8] = molecular target: Cytochrome P450 2D6 (Homo sapiens, UniProt P10635); conditions: bti-tn-5b1-4; also: in other assays of this panel Not Active means under 50% inhibition at 10 µM
Sequence of Cytochrome P450 2D6 (P10635 whole entry): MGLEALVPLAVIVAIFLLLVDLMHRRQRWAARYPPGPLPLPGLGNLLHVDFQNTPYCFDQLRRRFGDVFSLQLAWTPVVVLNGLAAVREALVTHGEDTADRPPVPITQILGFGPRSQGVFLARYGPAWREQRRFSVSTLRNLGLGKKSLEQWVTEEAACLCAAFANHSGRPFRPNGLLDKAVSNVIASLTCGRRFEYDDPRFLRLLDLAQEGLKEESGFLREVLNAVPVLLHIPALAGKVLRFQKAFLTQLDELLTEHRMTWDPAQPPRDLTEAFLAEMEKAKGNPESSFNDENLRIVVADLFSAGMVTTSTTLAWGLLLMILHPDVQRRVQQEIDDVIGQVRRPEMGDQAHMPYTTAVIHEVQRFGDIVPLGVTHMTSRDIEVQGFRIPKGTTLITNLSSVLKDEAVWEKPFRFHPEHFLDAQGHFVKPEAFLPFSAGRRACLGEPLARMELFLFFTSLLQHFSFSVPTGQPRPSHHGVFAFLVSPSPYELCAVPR

Compound | IC50 [1] | IC50 [2] | IC50 [3] | IC50 [4] | IC50 ([5]; insect cells) | IC50 ([6]; insect cells) | IC50 [7] | Ki [7] | IC50 [8] | Ki [8] | IC50 ([5]; read-out: IC50) | IC50 ([6]; read-out: IC50) | Ki [1] | Ki [2] | Ki [3] | Ki [4] | Ki ([5]; insect cells) | Ki ([6]; insect cells)
COC(=O)c1ccccc1O [METHYL SALICYLATE] | Not Active | Not Active | Not Active | Not Active | Not Active | Not Active | Not Active | Not Active | Not Active | Not Active |  |  |  |  |  |  |  | 
C[C@H]([C@](O)(Cn1cncn1)c1ccc(F)cc1F)S(C)(=O)=O [GENACONAZOLE] | Not Active | Not Active | Not Active | Not Active | Not Active | Not Active | Not Active | Not Active | Not Active | Not Active |  |  |  |  |  |  |  | 
Clc1cc2c(cc1Cl)Oc1cc(Cl)c(Cl)cc1O2 [2,3,7,8-TETRACHLORODIBENZO-P-DIOXIN] | Not Active | Not Active | Not Active | Not Active | Not Active | Not Active | Not Active | Not Active | Not Active | Not Active |  |  |  |  |  |  |  | 
Nn1nnc2ccccc21 | Not Active | Not Active | Not Active | Not Active | Not Active | Not Active | Not Active | Not Active | Not Active | Not Active |  |  |  |  |  |  |  | 
COc1ccccc1OCC(O)COC(N)=O (stereo unspecified) [METHOCARBAMOL] | Not Active | Not Active | Not Active | Not Active | Not Active | Not Active | Not Active | Not Active | Not Active | Not Active |  |  |  |  |  |  |  | 
CC(C(=O)O)c1ccc(-c2ccccc2)c(F)c1 (stereo unspecified) [FLURBIPROFEN] | Not Active | Not Active | Not Active | Not Active | Not Active | Not Active | Not Active | Not Active | Not Active | Not Active |  |  |  |  |  |  |  | 
Cc1c(F)c(N2CCNC(C)C2)cc2c1c(=O)c(C(=O)O)cn2C1CC1 (stereo unspecified) [GREPAFLOXACIN] | Not Active | Not Active | Not Active | Not Active | Not Active | Not Active | Not Active | Not Active | Not Active | Not Active |  |  |  |  |  |  |  | 
Oc1ccccc1O [CATECHOL] | Not Active | Not Active | Not Active | Not Active |  |  | Not Active | Not Active | Not Active | Not Active | 26 µM | 17.4 µM |  |  |  |  |  | 
O=P1(N(CCCl)CCCl)NCCCO1 (stereo unspecified) [CYCLOPHOSPHAMIDE ANHYDROUS] | Not Active | Not Active | Not Active | Not Active | Not Active | Not Active | Not Active | Not Active | Not Active | Not Active |  |  |  |  |  |  |  | 
INSULIN HUMAN | Not Active | Not Active | Not Active | Not Active | Not Active | Not Active | Not Active | Not Active | Not Active | Not Active |  |  | Not Active | Not Active | Not Active | Not Active | Not Active | Not Active
CS(=O)(=O)OCCCCOS(C)(=O)=O [BUSULFAN] | Not Active | Not Active | Not Active | Not Active | Not Active | Not Active | Not Active | Not Active | Not Active | Not Active |  |  |  |  |  |  |  | 
CC(C)(CO)C(O)C(=O)NCCCO (stereo unspecified) [PANTHENOL] | Not Active | Not Active | Not Active | Not Active | Not Active | Not Active | Not Active | Not Active | Not Active | Not Active |  |  |  |  |  |  |  | 
O=C(O)c1cc(=O)c2c(OCC(O)COc3cccc4oc(C(=O)O)cc(=O)c34)cccc2o1 [CROMOLYN] | Not Active | Not Active | Not Active | Not Active | Not Active | Not Active | Not Active | Not Active | Not Active | Not Active |  |  |  |  |  |  |  | 
O=C(/C=C/c1ccc(O)c(O)c1)OCCc1ccccc1 [CAFFEIC ACID PHENETHYL ESTER] | Not Active | Not Active | Not Active | Not Active |  |  | Not Active | Not Active | Not Active | Not Active | 1.01 µM | 4.21 µM |  |  |  |  |  | 
Nc1nc(Cl)nc2c1ncn2[C@H]1C[C@H](O)[C@@H](CO)O1 [CLADRIBINE] | Not Active | Not Active | Not Active | Not Active | Not Active | Not Active | Not Active | Not Active | Not Active | Not Active |  |  |  |  |  |  |  | 
CN1C[C@H](C(=O)N[C@]2(C)O[C@@]3(O)[C@@H]4CCCN4C(=O)[C@H](Cc4ccccc4)N3C2=O)C[C@@H]2c3cccc4[nH]cc(c34)C[C@H]21 [DIHYDROERGOTAMINE] | Not Active | Not Active | Not Active | Not Active | Not Active | Not Active | Not Active | Not Active | Not Active | Not Active |  |  |  |  |  |  |  | 
CC[C@H](C)C(=O)O[C@H]1C[C@@H](C)C=C2C=C[C@H](C)[C@H](CC[C@@H]3C[C@@H](O)CC(=O)O3)[C@H]21 [LOVASTATIN] | Not Active | Not Active | Not Active | Not Active | Not Active | Not Active | Not Active | Not Active | Not Active | Not Active |  |  |  |  |  |  |  | 
CC[C@H](C)C(=O)O[C@H]1C[C@H](O)C=C2C=C[C@H](C)[C@H](CC[C@@H](O)C[C@@H](O)CC(=O)O)[C@H]21 [PRAVASTATIN] | Not Active | Not Active | Not Active | Not Active | Not Active | Not Active | Not Active | Not Active | Not Active | Not Active |  |  |  |  |  |  |  | 
CCOC(=O)n1ccn(C)c1=S [CARBIMAZOLE] | Not Active | Not Active | Not Active | Not Active | Not Active | Not Active | Not Active | Not Active | Not Active | Not Active |  |  |  |  |  |  |  | 
C#C[C@]1(O)CC[C@H]2[C@@H]3CCC4=Cc5oncc5C[C@]4(C)[C@H]3CC[C@@]21C [DANAZOL] | Not Active | Not Active | Not Active | Not Active | Not Active | Not Active | Not Active | Not Active | Not Active | Not Active |  |  |  |  |  |  |  | 
